A word on the fraction unbound: it is free concentration divided by total concentration. Read a high fraction unbound as weak binding. One may read the microsomal CLint as a measure of how fast metabolising enzymes remove a compound, apart from limits set by blood flow. A low value points to greater metabolic stability. Broadly, the half-life is the time in which the quantity being followed falls by half. As a reminder, the pKa is the negative logarithm of the acid dissociation constant. Usually Tmax stands for the time at which the peak concentration occurs. As usually defined, the logP is a log measure of how a compound divides between an organic and an aqueous phase. As usually defined, the EC50 is the concentration that produces a half-maximal response.

The text below walks through data of article PMC11651168, “Effective, but Safe? Physiologically Based Pharmacokinetic (PBPK)-Modeling-Based Dosing Study of Molnupiravir for Risk Assessment in Pediatric Subpopulations” (ACS Pharmacology & Translational Science, 2024).

Read-outs that look alike come from different tables or passages of the source. Marks after values point to notes of the source that are not given here.

A short description of series [1]: Plasma protein binding assay. It is filed as in vitro ADME. The following applies: 2 h incubation; for fraction unbound at 2 h: plasma. How it is done:
(§1) First, for the construction of the adult molnupiravir-NHC PBPK model, the physicochemical properties were incorporated. Moreover, ADME in vitro assays were performed to allow a better estimation of in vivo PK behavior. In particular, the plasma stability and the metabolic stability assays were used to derive information on the half-life of molnupiravir and the subsequent generation of NHC. […] This information was taken into account during parameter optimization. […] The determination of the log P value yielded information for calculation of the partition coefficients. […] This value was used as a basis for the subsequent parameter optimization. As NHC is further converted to NHC-TP, which is cleared via the endogenous nucleoside pool, renal clearance as well as hepatic clearance, indicated by our in vitro data, is not involved in clearance.
(§2) The plasma protein binding assay, the plasma stability assay, and the metabolic stability assay were performed as described previously.[30] For all of the assays, NHC and molnupiravir were used. Molnupiravir and NHC were purchased from Merck/Sigma.

Series [2] can be described thus: Microsomal metabolic stability assay. It is filed as in vitro ADME. The settings on record: microsomes; for microsomal CLint: microsomal metabolic stability (Clint; in vitro). How it is done:
as §1, §2

Another series is described as follows: Plasma stability assay. It is filed as in vitro ADME. The settings on record: for half-life: plasma. How it is done: as §1, §2
A further series can be described thus: PAMPA permeability assay. It is filed as in vitro ADME. How it is done:
For the PAMPA assay, a PAMP-096 kit from BioAssay Systems was used. Theophyllin, chloramphenicol, and diclofenac were used as low, high, and medium permeability controls, respectively. The assay was conducted as described in the manufacturer’s protocol. For all compounds, 10 mg/mL DMSO stocks were used. Compound concentrations were determined using HPLC-MS/MS. For the HPLC-MS measurements, samples were analyzed using an Agilent 1290 Infinity II HPLC system coupled to an AB Sciex QTrap 6500plus as described below. Permeability was determined as follows in eqs 2 and 3.
Effective permeability (Peff) was calculated using the following formula [drawing 2] 2 [drawing 3] 3 where the PAt is average peak area of the test compound or permeability standard and PAE is the peak area of the equilibrium standard. The value of C was calculated by the following formula, where donor volume (VD) is 0.2 cm^3, acceptor volume (VA) is 0.3 cm^3, membrane area is 0.24 cm^2, and incubation time is 72,360 s.
(§3) Samples were analyzed using an Agilent 1290 Infinity II HPLC system coupled to an AB Sciex QTrap 6500plus mass spectrometer. LC conditions were as follows: column: Agilent Zorbax Eclipse Plus C18, 50 × 2.1 mm, 1.8 μm; temperature: 30 °C; injection volume: 1 μL per sample; flow rate: 700 μL/min. Samples were collected under the following conditions. Solvents: A: 100% water +0.1% HCOOH; solvent B: 100% ACN +0.1% HCOOH. The gradient was as follows: 99% A at 0 min, 99% A until 1 min, 99–0% A from 1 to 3 min, 99% A until 3.2 min. Mass transitions are depicted in Table S1. Peaks of samples were quantified by using relative quantification. Data analysis was performed by using Multiquant 3.0 software (AB Sciex).
On the technique in general: The PAMPA barrier holds no transporters, so it reflects passive diffusion.

A short description of series [3]: Pediatric PBPK model for neonates, infants and children in early childhood (PK-Sim). Further details: species or system human.
For series [4], the system named is rats. Further details: method as in earlier work. The settings on record: over three months; cited from earlier work.
The conditions of series [5]: cited from earlier work.
For series [6] the following is noted: cited from earlier work. This is another data set of the same source.
For series [7] the following is noted: cited from earlier work. This is another data set of the same source.
Series [8] has as its system dogs. The following applies: 14 days; cited from earlier work.
Series [9] relates to dogs. As to the kind of experiment: Preclinical toxicity study in dogs. The settings on record: allometric scaling of 50 mg/kg/day in dogs, scaling factors of ref 38.
Series [10] has as its system rats. As to the kind of experiment: Preclinical bone and cartilage toxicity in rats. The settings on record: allometric scaling of 500 mg/kg/day in rats, scaling factors of ref 38.
Series [11] can be described thus: Experimental determination of log P (octan-1-ol/water). It is filed as physicochemical. The settings on record: data from in vitro studies. How it is done:
The log P experiment was performed for molnupiravir and its metabolite NHC. Octan-1-ol and water were saturated 24 h prior to the start of the experiment. Each compound was added to the octan-1-ol phase at a final concentration of 100 ng/mL. Two setups were used: octan-1-ol/water (1:1) and octan-1-ol/water (1:10). After addition of the compound, each phase was shaken at 2000 rpm for 1 h, and then, phases were separated by centrifugation at 13,000 rpm for 5 min at 4 °C. From each sample, 10 μL of water layer and octanol layer was diluted to 100 μL with DMSO for high-performance liquid chromatography tandem mass spectrometry (HPLC-MS/MS) analysis. The log P was calculated by Formula 1. [drawing 1] 1
as §3, with “Data analysis was performed by using Multiquant 3.0 software (AB Sciex).” left out

The test system of a further series is SARS-CoV-2 wildtype. Further details: method as in Wen et al., 2023 (36). The following applies: ref Wen et al., 2023 (36), read-out: Antiviral activity, EC50; cited from earlier work.
Another series has as its system SARS-CoV-2 beta. Further details: method as in Wen et al., 2023 (36). The following applies: ref Wen et al., 2023 (36), read-out: Antiviral activity, EC50; cited from earlier work.
The test system of the next series is SARS-CoV-2 alpha. Further details: method as in Wen et al., 2023 (36). The following applies: ref Wen et al., 2023 (36), read-out: Antiviral activity, EC50; cited from earlier work.
In the next series the test system is SARS-CoV-2 delta. Further details: method as in Wen et al., 2023 (36). The settings on record: ref Wen et al., 2023 (36), read-out: Antiviral activity, EC50; cited from earlier work.
Series [12] relates to SARS-CoV-2 omicron BA.1 lineage. Further details: method as in Wen et al., 2023 (36). The following applies: ref Wen et al., 2023 (36), read-out: Antiviral activity, EC50; cited from earlier work.
For series [13], the system named is SARS-CoV-2 omicron BA.2 lineage. Further details: method as in Wen et al., 2023 (36). The settings on record: ref Wen et al., 2023 (36), read-out: Antiviral activity, EC50; cited from earlier work.

Consider `CC(C)C(=O)OC[C@H]1O[C@@H](n2ccc(NO)nc2=O)[C@H](O)[C@@H]1O` [Molnupiravir], for which, in series [1], the “plasma protein binding (%)” value is listed as 38.08 ^b % and the unbound share (fraction unbound) at 2 h was around 0.62. In addition, in [2], the “microsomal metabolic stability (Clint; in vitro)” value is on record as 40.6 ^b μL/min/mg protein and the microsomal CLint is around 40 µL/min/mg. Besides, in the series “Plasma stability assay”, the “plasma stability (in words)” value is “degraded rapidly in plasma” and the half-life is below 0.25 h. For the same compound, the “permeability (in words)” value in “PAMPA permeability assay” is on record as “moderate permeability”. For the same compound, the “permeability (PAMPA)” value in the series “PAMPA permeability assay” (72360 s) is 3.1 10^–6 cm/s. Further, the Papp at 72360 s in the series “PAMPA permeability assay” (data from in vitro studies, read-out: specific intestinal permeability (converted)) is 3.1 ×10⁻⁶ cm/s. The “fold higher doses needed in pediatric subpopulations for similar efficacy to adults” value in [3] is 2–3 fold. The “dose at which bone and cartilage toxicity was observed” value in the series with rats [4] is listed as “exceeding 500 mg/kg/day”. Besides, the pKa in series [5] (first of three values) was 2.2. Moreover, the pKa in series [5] (second of three printed values) is 10.2. In series [5] (third of three printed values), the pKa was 12.0. Besides, the solubility in series [6] is 41[21] mg/mL. In [7] (concomitant food consumption), the “decrease in Cmax with food (ratio)” value is recorded as 1.6 and the “effect of food on total exposure (AUC0–∞)” value is on record as “not impacted”. Further, the Tmax in [7] (with concomitant food consumption) is 3.0 h. Moreover, the Tmax in series [7] (without food) is 1.0 h. In addition, the “dose at which no toxicity was observed” value in the series with dogs [8] was 50 mg/kg/day. The “human equivalent dose of the nonobserved toxicity dose in dogs” value in the series with dogs [9] turned out to be 27 mg/kg/day. In addition, the “human equivalent dose of the toxicity-associated rat dose” value in the series on rats [10] is given as “around 80 mg/kg/day”.
Turning to `O=c1nc(NO)ccn1[C@@H]1O[C@H](CO)[C@@H](O)[C@H]1O` [NHC, β-D-N4-hydroxycytidine], the logP in series [11] was determined as 0.1. Further, in [1], the “plasma protein binding (%)” value is 38.84 ^b %. The fraction unbound at 2 h in series [1] is around 0.64. In series [2], this compound gave a microsomal CLint of around 11.6 µL/min/mg. In addition, the “plasma stability (in words)” value in “Plasma stability assay” is “stable in plasma”. The same compound registered a half-life in “Plasma stability assay” above 4 h. Also, the EC50 is 0.3 µM in the series with SARS-CoV-2 wildtype; 0.48 µM in the series with SARS-CoV-2 beta; 0.53 µM in the series with SARS-CoV-2 alpha; 0.89 µM in the series on SARS-CoV-2 delta; 0.28 µM in series [12]; 0.67 µM in series [13]. Moreover, the pKa in [5] (model input, source not given) is given as 12.30. Besides, in series [6], the solubility was 21[21] mg/mL.
